Data on five compounds can be found in US7696251B2, “Method for inhibiting neuronal cell death induced by oxidative glutamate toxicity” (Incorporated National University Iwate University, priority 2007, dated 2010).

The test system of experiment [1] is HT22 cells. Briefly: Oxidative glutamate toxicity in HT22 cells, MTT assay. It counts as cell-based, mouse. The note with it: for IC50: Mus musculus, read-out: concentration of half inhibition (IC50) of oxidative glutamate toxicity. On the procedure: (§1) DPPD and its derivatives, shown in FIG. 1, were obtained from Ouchi Shinko Chemical Industrial (Tokyo, Japan). The compounds were dissolved in dimethyl sulfoxide (DMSO). The final concentration of DMSO in the culture medium was 0.1%. TNFα, actinomycin D (AcD), XA, XO, glutamate and H2O2 were purchased from Sigma (St. Louis, Mo., USA). HT22 cells were cultured and MTT assays were performed as described previously. Experiments presented here were repeated at least 3 times with 4 samples for each determination. The data are presented as the mean ±SD (for in vitro experiments). In order to examine the neuroprotective effects of DPPD, we employed the following 4 death-inducing agents: 1) glutamate (oxidative stress, transcription-dependent), 2) TNFα (receptor-mediated apoptosis, transcription-independent), 3) H2O2 (oxidative stress, transcription-independent) and 4) XA+XO (oxidative stress, transcription-independent). In FIG. 1, squares, DPPD; circles, D1; triangles, D2. […] HT22 cells were seeded into 24-well plates at a density of 4×10^4 cells/cm^2. After a 5-hr incubation, various concentrations of the compounds were added. One hour later, 5 mM of glutamate was added to the cultures, and 20 h thereafter, the cells were subjected to the MTT assay. The values, which represent the percentage of the control MTT activity, are means ±S.D.s (n=4).
In order to determine whether the inhibition was substantially specific to cell death by oxidative glutamate toxicity, the effects of these compounds on the cell death induced by various stimuli were examined. Adverting to FIGS. 2A, 2B, 2C and 2D, 2HT22 cells were seeded into 24-well plates at a density of 4×10^4 cells/cm^2. After a 5-hr incubation, various concentrations of DPPD were added. One hour later, the cells were treated for 20 h with glutamate (A), TNFα in the presence of 0.1 μg/ml AcD (B), H2O2 (C) and XO in the presence of 0.1 mg/ml of XA (D) and then were subjected to the MTT assay. The values, which represent the percentage of the control MTT activity, are means ±S.D.s (n=4).

The subject of experiment [2] is HT22 cells. Nature of the experiment: TNFα-induced cell death of HT22 cells (with AcD), MTT assay. It counts as cell-based, mouse. The note with it: 0.1 or 1.0 ng/ml TNFα with 0.1 μg/ml AcD, 20 h, MTT (FIG. 2B). On the procedure:
as §1, with “(n=4). […]” for “(n=4).”

Experiment [3] concerns HT22 cells. Nature of the experiment: H2O2-induced cell death of HT22 cells, MTT assay. It counts as cell-based, mouse. The note with it: 30 or 50 μM H2O2, 20 h, MTT (FIG. 2C). As to the method: as §1, with “(n=4). […]” for “(n=4).”
In general terms: Formazan colour is commonly taken as a measure of viable cells.

Experiment [4] relates to HT22 cells. Nature of the experiment: XA+XO-induced cell death of HT22 cells, MTT assay. It counts as cell-based, mouse. The note with it: 15 or 30 mU/ml XO with 0.1 mg/ml XA, 20 h, MTT (FIG. 2D). On the procedure: as §1, with “(n=4). […]” for “(n=4).”
Experiment [5] deals with PC12 cells. The settings on record: DPPD at μM concentrations; associated with decrease in intracellular ROS levels [13]; cited from earlier work.
[6] abbreviates: HT-22, HT22 cells, 5 mM glutamate, 20 h, MTT assay.

Like-named read-outs stand apart in the source and are kept apart here.

Consider `CC(C)Nc1ccc(Nc2ccccc2)cc1` [D1], for which the IC50 in experiment [1] (HT-22, 20 h) was found to be 5.4 nM.

On to `Nc1ccc(Nc2ccccc2)cc1` [D2], for which the IC50 in experiment [1] (setting [6]) stood at 26 nM.

For the compound `Nc1ccc(N)cc1` [D3], the IC50 in experiment [1] (HT-22, 20 h) worked out at 879 nM.

Take `Nc1ccccc1` [D4]: the IC50 in experiment [1] (setting [6]) worked out at 94000 nM.

Regarding `c1ccc(Nc2ccc(Nc3ccccc3)cc2)cc1` [DPPD, N,N′-Diphenyl-p-phenylenediamine], in experiment [1] (DPPD at 1-10 nM, 5 or 10 mM glutamate, 20 h, MTT (FIG. 2A)), the “protection against death induced by glutamate” value was “almost completely blocked”. Besides, in experiment [1] (HT-22, 20 h), the IC50 amounted to 7.7 nM. Also, the “protection against TNFα-induced neuronal death” value in experiment [2] is “substantially ineffective”. Moreover, in experiment [3], the “protection against H2O2-induced cell death” value was “did not substantially protect”. Moreover, the “protection against XA+XO-induced cell death” value in experiment [4] is on record as “did not substantially protect”. Also, in experiment [5], the “protection of PC12 cells against lipid peroxide” value was “protected”.
